According to PubChem BioAssay (NCI):
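Results reflect a 48-hour exposure of cells in 96-well plates to compound at five concentrations. TGI denotes the concentration required for complete inhibition of growth.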

Key:
Assay in all cases: growth of human tumour cells (NCI), 48 h
[1] = test system: UACC-62 melanoma
[2] = test system: SNB-19 CNS
[3] = test system: CCRF-CEM leukemia
[4] = test system: SF-268 CNS
[5] = test system: OVCAR-8 ovarian
[6] = test system: EKVX NSCLC
[7] = test system: M19-MEL melanoma
[8] = test system: OVCAR-3 ovarian
[9] = test system: K-562 leukemia
[10] = test system: ACHN renal
[11] = test system: CAKI-1 renal
[12] = test system: COLO 205 colon
[13] = test system: SNB-78 CNS
[14] = test system: RPMI-8226 leukemia
[15] = test system: A549 NSCLC
[16] = test system: UO-31 renal
[17] = test system: IGROV1 ovarian
[18] = test system: HCC-2998 colon
[19] = test system: HS 578T breast
[20] = test system: NCI/ADR-RES ovarian

Structure (SMILES): Cc1ccc2c(c1)C(=O)N(N(C)C)CC(=O)N2
- TGI [1]: > 100 µM
- TGI [2]: > 100 µM
- TGI [3]: > 100 µM
- TGI [4]: > 100 µM
- TGI [5]: > 100 µM
- TGI [6]: > 100 µM
- TGI [7]: > 100 µM
- TGI [8]: > 100 µM
- TGI [9]: > 100 µM
- TGI [10]: > 100 µM
- TGI [11]: > 100 µM
- TGI [12]: > 100 µM
- TGI [13]: > 100 µM
- TGI [14]: > 100 µM
- TGI [15]: > 100 µM
- TGI [16]: > 100 µM
- TGI [17]: > 100 µM
- TGI [18]: > 100 µM

Structure (SMILES): c1coc(CNc2ncnc3[nH]ncc23)c1
- TGI [1]: > 100 µM
- TGI [2]: > 100 µM
- TGI [3]: > 100 µM
- TGI [4]: > 100 µM
- TGI [5]: > 100 µM
- TGI [6]: > 100 µM
- TGI [7]: > 100 µM
- TGI [8]: > 100 µM
- TGI [9]: > 100 µM
- TGI [10]: > 100 µM
- TGI [11]: > 100 µM
- TGI [12]: > 100 µM
- TGI [13]: > 100 µM
- TGI [14]: > 100 µM
- TGI [15]: > 100 µM
- TGI [16]: > 100 µM
- TGI [17]: > 100 µM
- TGI [18]: > 100 µM

Structure (SMILES): N#CN=[N+]([O-])c1ccc(C(=O)O)cc1
- TGI [1]: 31.4 µM
- TGI [2]: 29.8 µM
- TGI [19]: 61.3 µM
- TGI [3]: 51.9 µM
- TGI [4]: 35.5 µM
- TGI [5]: 37.1 µM
- TGI [6]: 35.8 µM
- TGI [8]: 29.7 µM
- TGI [9]: 38.4 µM
- TGI [10]: 32.7 µM
- TGI [14]: 35.3 µM
- TGI [15]: > 100 µM
- TGI [16]: 30.3 µM
- TGI [17]: > 100 µM
- TGI [18]: > 100 µM
- TGI [20]: 39.9 µM

Structure (SMILES): CSc1nc(NC2OCC(O)C(O)C2O)c(N)c(=O)[nH]1 (stereo unspecified)
- TGI [1]: > 100 µM
- TGI [2]: > 100 µM
- TGI [3]: > 100 µM
- TGI [4]: > 100 µM
- TGI [5]: > 100 µM
- TGI [6]: > 100 µM
- TGI [7]: > 100 µM
- TGI [8]: > 100 µM
- TGI [9]: > 100 µM
- TGI [12]: > 100 µM
- TGI [13]: > 100 µM
- TGI [14]: > 100 µM
- TGI [15]: > 100 µM
- TGI [16]: > 100 µM
- TGI [17]: > 100 µM
- TGI [18]: > 100 µM
- TGI [20]: > 100 µM

Structure (SMILES): CCOC(=O)NC(Nc1ncccn1)(C(=O)OCC)C(F)(F)F (stereo unspecified)
- TGI [1]: > 100 µM
- TGI [2]: > 100 µM
- TGI [19]: > 100 µM
- TGI [3]: > 100 µM
- TGI [4]: > 100 µM
- TGI [5]: > 100 µM
- TGI [6]: > 100 µM
- TGI [8]: > 100 µM
- TGI [9]: > 100 µM
- TGI [10]: > 100 µM
- TGI [11]: > 100 µM
- TGI [12]: > 100 µM
- TGI [14]: > 100 µM
- TGI [15]: > 100 µM
- TGI [16]: > 100 µM
- TGI [17]: > 100 µM
- TGI [18]: > 100 µM
- TGI [20]: > 100 µM

Structure (SMILES): CCN(CC)CCNc1ccc2nnn3c4ccc(C)cc4c(=O)c1c23
- TGI [1]: 27.1 µM
- TGI [2]: 27.4 µM
- TGI [3]: 25.6 µM
- TGI [4]: 22.3 µM
- TGI [5]: 20.9 µM
- TGI [7]: 27.8 µM
- TGI [8]: 29.9 µM
- TGI [9]: 25.9 µM
- TGI [10]: 21.3 µM
- TGI [11]: 34.9 µM
- TGI [12]: 20.6 µM
- TGI [13]: 26.1 µM
- TGI [14]: 21.6 µM
- TGI [15]: 19.3 µM
- TGI [16]: 22.2 µM
- TGI [17]: 26.4 µM

Structure (SMILES): CC(=O)OCC1=C(C(=O)O)N2C(=O)C(NC(=O)CSc3ccncc3)C2SC1 (stereo unspecified)
- TGI [1]: > 100 µM
- TGI [2]: > 100 µM
- TGI [19]: > 100 µM
- TGI [3]: > 100 µM
- TGI [4]: > 100 µM
- TGI [5]: > 100 µM
- TGI [6]: > 100 µM
- TGI [8]: > 100 µM
- TGI [9]: > 100 µM
- TGI [10]: > 100 µM
- TGI [11]: > 100 µM
- TGI [12]: > 100 µM
- TGI [14]: > 100 µM
- TGI [15]: > 100 µM
- TGI [16]: > 100 µM
- TGI [17]: > 100 µM
- TGI [18]: > 100 µM
- TGI [20]: > 100 µM

Structure (SMILES): O=C1CSC(=S)N1
- TGI [2]: > 100 µM
- TGI [19]: > 100 µM
- TGI [3]: > 100 µM
- TGI [4]: > 100 µM
- TGI [5]: > 100 µM
- TGI [6]: > 100 µM
- TGI [8]: > 100 µM
- TGI [9]: > 100 µM
- TGI [10]: > 100 µM
- TGI [11]: > 100 µM
- TGI [12]: > 100 µM
- TGI [14]: > 100 µM
- TGI [15]: > 100 µM
- TGI [16]: > 100 µM
- TGI [17]: > 100 µM
- TGI [18]: > 100 µM
- TGI [20]: > 100 µM

Structure (SMILES): Brc1ccc(C2CC(c3cccc4ccccc34)=Nc3ccccc3S2)cc1 (stereo unspecified)
- TGI [1]: > 100 µM
- TGI [2]: > 100 µM
- TGI [3]: 81.6 µM
- TGI [4]: > 100 µM
- TGI [5]: > 100 µM
- TGI [6]: > 100 µM
- TGI [7]: > 100 µM
- TGI [9]: > 100 µM
- TGI [10]: > 100 µM
- TGI [11]: > 100 µM
- TGI [12]: > 100 µM
- TGI [13]: > 100 µM
- TGI [14]: 51.6 µM
- TGI [15]: > 100 µM
- TGI [16]: > 100 µM
- TGI [17]: > 100 µM
- TGI [18]: > 100 µM

Structure (SMILES): CC(C)(C)[Si](C)(C)OCC1OC(n2cnc3c(N)ncnc32)CC1O (stereo unspecified)
- TGI [1]: > 100 µM
- TGI [2]: > 100 µM
- TGI [19]: > 100 µM
- TGI [3]: > 100 µM
- TGI [5]: > 100 µM
- TGI [8]: > 100 µM
- TGI [9]: > 100 µM
- TGI [11]: > 100 µM
- TGI [12]: > 100 µM
- TGI [14]: > 100 µM
- TGI [16]: > 100 µM
- TGI [17]: > 100 µM
- TGI [20]: > 100 µM

Structure (SMILES): O=C1NC2=C(CCCC/C2=N\O)C12CCCCC2
- TGI [1]: > 100 µM
- TGI [2]: > 100 µM
- TGI [4]: > 100 µM
- TGI [6]: > 100 µM
- TGI [7]: > 100 µM
- TGI [8]: > 100 µM
- TGI [9]: > 100 µM
- TGI [10]: > 100 µM
- TGI [13]: > 100 µM
- TGI [15]: > 100 µM
- TGI [16]: > 100 µM
- TGI [17]: > 100 µM
- TGI [18]: > 100 µM

Structure (SMILES): Cc1cc2c(cc1C)OC(=O)CC2
- TGI [1]: > 100 µM
- TGI [19]: > 100 µM
- TGI [3]: > 100 µM
- TGI [4]: > 100 µM
- TGI [5]: > 100 µM
- TGI [6]: > 100 µM
- TGI [8]: > 100 µM
- TGI [9]: > 100 µM
- TGI [10]: > 100 µM
- TGI [11]: > 100 µM
- TGI [12]: > 100 µM
- TGI [14]: > 100 µM
- TGI [15]: > 100 µM
- TGI [16]: > 100 µM
- TGI [17]: > 100 µM
- TGI [18]: > 100 µM
- TGI [20]: > 100 µM

Structure (SMILES): CC(=O)c1ccc2c(c1)c1c(C)c3c[n+](C)ccc3c(C)c1n2C
- TGI [1]: 8.23 µM
- TGI [2]: 5.74 µM
- TGI [3]: > 46.3 µM
- TGI [4]: 3.52 µM
- TGI [5]: 39.9 µM
- TGI [6]: > 100 µM
- TGI [7]: 23.7 µM
- TGI [8]: > 65.6 µM
- TGI [9]: > 72.2 µM
- TGI [11]: > 76 µM
- TGI [12]: > 100 µM
- TGI [13]: 35.3 µM
- TGI [14]: 30.5 µM
- TGI [15]: > 100 µM
- TGI [16]: > 23.7 µM
- TGI [17]: > 100 µM
- TGI [18]: > 100 µM
- TGI [20]: > 100 µM
